Measured values reported in ChEMBL document CHEMBL5291721, “A preclinical secondary pharmacology resource illuminates target-adverse drug reaction associations of marketed drugs” (Nat Commun, 2023).

Columns and labels:
[1] = target: Histamine H1 receptor (Homo sapiens, UniProt P35367); assay type: functional, cell-based
[2] = target: T1, Peroxisome proliferator-activated receptor gamma (Homo sapiens, UniProt P37231); assay type: functional
T1 sequence (P37231 whole entry): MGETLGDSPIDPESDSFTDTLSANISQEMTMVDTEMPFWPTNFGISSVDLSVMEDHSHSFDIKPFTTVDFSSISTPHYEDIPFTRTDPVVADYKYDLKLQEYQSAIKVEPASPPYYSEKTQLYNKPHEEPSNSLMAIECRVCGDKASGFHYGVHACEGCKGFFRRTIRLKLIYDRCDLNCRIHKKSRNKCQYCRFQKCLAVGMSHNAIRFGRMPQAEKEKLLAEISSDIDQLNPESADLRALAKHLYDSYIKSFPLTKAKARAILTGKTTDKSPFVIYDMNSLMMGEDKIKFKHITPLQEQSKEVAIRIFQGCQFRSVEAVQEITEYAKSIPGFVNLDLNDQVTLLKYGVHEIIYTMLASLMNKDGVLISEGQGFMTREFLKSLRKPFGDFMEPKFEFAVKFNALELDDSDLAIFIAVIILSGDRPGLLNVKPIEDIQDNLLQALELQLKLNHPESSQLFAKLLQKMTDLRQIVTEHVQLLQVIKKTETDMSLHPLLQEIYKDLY

[3] = target: T1, Peroxisome proliferator-activated receptor gamma; assay type: functional; remark: listed apart in the source
[4] = target: D(1A) dopamine receptor (Homo sapiens, UniProt P21728)
[5] = target: T2, D(4) dopamine receptor (Homo sapiens, UniProt P21917)
T2 sequence (P21917 whole entry): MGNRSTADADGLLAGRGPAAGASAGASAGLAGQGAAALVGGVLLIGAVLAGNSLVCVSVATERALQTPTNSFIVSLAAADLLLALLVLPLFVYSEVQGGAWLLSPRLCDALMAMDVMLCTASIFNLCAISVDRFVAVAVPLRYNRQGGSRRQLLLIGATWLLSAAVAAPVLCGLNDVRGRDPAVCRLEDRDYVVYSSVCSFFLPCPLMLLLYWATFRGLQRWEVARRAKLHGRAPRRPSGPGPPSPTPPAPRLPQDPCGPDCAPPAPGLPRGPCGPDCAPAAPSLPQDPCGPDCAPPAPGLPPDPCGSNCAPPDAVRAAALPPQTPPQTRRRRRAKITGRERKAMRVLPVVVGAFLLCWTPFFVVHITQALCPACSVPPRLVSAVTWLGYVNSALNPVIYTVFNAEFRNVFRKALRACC

[6] = target: Substance-P receptor (Homo sapiens, UniProt P25103)
[7] = target: T3, Progesterone receptor (Homo sapiens, UniProt P06401)
T3 sequence (P06401 whole entry): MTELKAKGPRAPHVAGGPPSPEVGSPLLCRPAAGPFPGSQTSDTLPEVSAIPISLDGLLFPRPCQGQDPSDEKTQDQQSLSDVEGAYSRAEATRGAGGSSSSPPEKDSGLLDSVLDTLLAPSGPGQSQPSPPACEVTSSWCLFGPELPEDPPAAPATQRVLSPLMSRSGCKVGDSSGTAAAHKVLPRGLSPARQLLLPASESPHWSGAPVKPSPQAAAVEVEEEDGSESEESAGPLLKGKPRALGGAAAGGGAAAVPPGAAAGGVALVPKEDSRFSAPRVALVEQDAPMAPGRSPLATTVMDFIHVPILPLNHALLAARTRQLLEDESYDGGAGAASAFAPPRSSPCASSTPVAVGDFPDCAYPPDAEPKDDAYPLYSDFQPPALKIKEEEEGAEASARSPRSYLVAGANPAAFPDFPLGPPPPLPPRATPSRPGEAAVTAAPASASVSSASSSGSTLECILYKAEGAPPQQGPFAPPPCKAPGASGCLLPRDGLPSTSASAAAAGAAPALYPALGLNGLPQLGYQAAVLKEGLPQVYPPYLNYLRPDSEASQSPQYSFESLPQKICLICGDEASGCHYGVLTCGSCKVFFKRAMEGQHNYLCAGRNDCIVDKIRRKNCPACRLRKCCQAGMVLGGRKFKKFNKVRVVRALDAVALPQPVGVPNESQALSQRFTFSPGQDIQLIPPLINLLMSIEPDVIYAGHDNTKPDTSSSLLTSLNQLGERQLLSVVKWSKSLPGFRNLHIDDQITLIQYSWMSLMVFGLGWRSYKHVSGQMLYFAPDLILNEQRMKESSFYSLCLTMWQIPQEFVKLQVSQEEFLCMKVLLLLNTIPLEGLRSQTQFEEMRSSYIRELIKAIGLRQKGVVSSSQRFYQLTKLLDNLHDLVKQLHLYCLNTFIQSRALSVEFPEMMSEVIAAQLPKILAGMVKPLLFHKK

[8] = target: T4, Gastric inhibitory polypeptide receptor (Homo sapiens, UniProt P48546)
T4 sequence (P48546 whole entry): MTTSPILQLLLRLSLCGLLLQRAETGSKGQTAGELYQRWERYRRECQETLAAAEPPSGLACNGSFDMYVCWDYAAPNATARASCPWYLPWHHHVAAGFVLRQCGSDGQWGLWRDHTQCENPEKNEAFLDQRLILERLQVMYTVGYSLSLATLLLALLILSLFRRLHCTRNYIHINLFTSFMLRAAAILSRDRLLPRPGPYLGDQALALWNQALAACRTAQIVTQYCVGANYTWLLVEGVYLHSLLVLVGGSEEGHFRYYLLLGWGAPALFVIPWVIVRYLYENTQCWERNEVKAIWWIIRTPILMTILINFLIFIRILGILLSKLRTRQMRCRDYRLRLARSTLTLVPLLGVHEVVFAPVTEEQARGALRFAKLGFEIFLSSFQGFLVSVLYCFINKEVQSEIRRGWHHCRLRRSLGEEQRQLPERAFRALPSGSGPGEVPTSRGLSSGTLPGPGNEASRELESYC

[9] = target: 5-hydroxytryptamine receptor 2A (Homo sapiens, UniProt P28223)
[10] = target: Sodium channel protein type 5 subunit alpha (Homo sapiens, UniProt Q14524); assay type: functional, cell-based
Note: assay procedure not described here.

Histamine H1 receptor, sequence (P35367 whole entry): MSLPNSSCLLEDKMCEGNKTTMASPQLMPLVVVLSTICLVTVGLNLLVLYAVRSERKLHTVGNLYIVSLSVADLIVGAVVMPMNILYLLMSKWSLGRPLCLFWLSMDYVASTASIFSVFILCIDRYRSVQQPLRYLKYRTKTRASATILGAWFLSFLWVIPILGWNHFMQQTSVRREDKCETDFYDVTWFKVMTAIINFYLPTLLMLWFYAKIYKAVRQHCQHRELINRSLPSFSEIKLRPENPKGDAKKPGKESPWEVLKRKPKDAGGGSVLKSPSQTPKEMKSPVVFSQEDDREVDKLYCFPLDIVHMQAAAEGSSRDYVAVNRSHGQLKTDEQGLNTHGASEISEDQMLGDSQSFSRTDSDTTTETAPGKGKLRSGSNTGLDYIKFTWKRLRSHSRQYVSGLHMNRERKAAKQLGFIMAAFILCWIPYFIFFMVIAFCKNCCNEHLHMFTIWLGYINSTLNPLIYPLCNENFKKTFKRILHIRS
D(1A) dopamine receptor, sequence (P21728 whole entry): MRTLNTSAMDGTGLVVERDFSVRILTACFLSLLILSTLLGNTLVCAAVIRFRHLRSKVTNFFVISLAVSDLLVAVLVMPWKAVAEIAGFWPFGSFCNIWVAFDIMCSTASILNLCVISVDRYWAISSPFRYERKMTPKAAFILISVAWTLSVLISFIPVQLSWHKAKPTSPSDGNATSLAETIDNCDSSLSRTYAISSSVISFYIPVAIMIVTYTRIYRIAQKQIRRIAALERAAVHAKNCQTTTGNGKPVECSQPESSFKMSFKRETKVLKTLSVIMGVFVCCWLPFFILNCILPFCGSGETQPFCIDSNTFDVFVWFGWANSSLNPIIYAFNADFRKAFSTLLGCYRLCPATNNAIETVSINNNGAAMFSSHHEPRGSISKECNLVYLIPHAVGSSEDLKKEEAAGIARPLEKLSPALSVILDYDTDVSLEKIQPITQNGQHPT
Sodium channel protein type 5 subunit alpha, sequence (Q14524 whole entry): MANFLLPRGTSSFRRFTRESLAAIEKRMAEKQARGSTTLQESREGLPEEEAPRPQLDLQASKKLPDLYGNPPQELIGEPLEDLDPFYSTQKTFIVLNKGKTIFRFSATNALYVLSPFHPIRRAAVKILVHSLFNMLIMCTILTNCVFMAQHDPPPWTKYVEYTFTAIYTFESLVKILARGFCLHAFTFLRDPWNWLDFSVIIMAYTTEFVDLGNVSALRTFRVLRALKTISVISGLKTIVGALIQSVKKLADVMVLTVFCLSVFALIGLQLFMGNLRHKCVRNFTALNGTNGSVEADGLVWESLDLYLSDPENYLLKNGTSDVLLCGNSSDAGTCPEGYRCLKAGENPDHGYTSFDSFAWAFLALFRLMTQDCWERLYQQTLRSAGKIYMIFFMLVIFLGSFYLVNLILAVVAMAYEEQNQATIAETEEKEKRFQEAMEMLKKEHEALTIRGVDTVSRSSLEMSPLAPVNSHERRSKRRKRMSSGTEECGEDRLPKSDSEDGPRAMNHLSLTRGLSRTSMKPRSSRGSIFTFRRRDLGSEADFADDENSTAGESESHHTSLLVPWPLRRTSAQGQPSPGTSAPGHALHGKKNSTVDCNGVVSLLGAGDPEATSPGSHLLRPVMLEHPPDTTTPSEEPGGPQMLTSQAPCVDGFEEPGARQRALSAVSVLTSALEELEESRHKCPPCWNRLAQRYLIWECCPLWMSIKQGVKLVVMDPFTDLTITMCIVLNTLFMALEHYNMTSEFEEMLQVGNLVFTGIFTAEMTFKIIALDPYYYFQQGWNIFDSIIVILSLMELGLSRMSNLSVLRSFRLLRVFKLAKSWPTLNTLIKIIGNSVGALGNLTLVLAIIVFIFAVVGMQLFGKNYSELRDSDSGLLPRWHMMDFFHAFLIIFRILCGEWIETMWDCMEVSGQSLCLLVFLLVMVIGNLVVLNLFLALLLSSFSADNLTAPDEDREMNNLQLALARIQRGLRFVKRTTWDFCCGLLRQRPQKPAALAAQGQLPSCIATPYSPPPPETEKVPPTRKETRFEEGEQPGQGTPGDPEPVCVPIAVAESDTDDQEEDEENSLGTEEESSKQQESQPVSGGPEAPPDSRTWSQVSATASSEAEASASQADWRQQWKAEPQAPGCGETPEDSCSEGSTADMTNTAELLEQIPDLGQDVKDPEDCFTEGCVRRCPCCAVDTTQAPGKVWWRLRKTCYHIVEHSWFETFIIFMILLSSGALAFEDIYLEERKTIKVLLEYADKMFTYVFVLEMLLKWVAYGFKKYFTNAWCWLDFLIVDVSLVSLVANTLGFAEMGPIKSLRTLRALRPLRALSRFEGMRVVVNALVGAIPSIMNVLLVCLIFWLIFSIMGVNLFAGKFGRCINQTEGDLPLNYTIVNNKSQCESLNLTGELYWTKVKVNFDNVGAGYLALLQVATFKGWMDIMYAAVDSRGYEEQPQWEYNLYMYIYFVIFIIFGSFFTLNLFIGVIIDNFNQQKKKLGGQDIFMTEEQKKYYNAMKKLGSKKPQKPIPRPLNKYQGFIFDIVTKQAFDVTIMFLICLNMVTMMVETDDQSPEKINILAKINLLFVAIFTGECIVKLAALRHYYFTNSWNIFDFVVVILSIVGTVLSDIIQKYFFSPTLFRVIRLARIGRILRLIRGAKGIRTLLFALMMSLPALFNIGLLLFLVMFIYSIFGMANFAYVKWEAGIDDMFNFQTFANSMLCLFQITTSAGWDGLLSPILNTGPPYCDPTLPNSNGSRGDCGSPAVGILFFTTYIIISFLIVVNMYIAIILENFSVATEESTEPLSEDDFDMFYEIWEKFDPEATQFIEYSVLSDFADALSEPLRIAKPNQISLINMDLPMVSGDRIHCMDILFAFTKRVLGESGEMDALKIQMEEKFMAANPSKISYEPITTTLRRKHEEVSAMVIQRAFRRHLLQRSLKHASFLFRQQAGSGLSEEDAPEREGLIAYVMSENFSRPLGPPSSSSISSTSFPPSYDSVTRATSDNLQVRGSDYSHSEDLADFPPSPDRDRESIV
Substance-P receptor, sequence (P25103 whole entry): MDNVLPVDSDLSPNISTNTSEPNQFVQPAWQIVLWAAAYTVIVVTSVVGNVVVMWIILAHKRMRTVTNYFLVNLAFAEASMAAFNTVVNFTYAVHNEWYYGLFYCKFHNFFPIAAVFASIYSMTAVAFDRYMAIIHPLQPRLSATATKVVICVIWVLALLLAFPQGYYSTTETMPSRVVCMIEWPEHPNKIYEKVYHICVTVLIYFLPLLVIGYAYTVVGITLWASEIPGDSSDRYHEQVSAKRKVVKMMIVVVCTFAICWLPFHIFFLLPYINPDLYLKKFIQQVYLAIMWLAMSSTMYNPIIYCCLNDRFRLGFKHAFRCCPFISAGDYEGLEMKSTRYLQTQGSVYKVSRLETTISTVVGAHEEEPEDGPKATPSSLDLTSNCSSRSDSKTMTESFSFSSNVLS
5-hydroxytryptamine receptor 2A, sequence (P28223 whole entry): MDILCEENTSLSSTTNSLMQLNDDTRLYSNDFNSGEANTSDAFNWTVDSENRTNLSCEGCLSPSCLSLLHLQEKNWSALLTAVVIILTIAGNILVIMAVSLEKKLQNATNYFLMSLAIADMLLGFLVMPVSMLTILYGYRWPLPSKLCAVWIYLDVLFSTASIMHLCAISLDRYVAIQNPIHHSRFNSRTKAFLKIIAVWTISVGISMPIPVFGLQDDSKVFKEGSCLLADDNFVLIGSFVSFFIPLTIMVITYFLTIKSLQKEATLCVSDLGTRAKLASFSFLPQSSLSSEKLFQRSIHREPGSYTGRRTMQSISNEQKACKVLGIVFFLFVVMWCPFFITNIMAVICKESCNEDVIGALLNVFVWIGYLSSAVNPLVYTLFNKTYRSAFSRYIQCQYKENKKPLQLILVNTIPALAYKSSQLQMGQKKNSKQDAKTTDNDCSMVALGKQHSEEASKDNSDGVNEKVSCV

| Compound | AC50 [2] | AC50 [3] | AC50 [4] | AC50 [7] | AC50 [8] | also measured |
| --- | --- | --- | --- | --- | --- | --- |
| CS(=O)(=O)NC(=O)CCC/C=C\C[C@H]1C(=O)C[C@@H](O)[C@@H]1/C=C/[C@@H](O)COc1ccccc1 [SULPROSTONE] | > 30 µM | > 30 µM |  |  |  | AC50 [1]: > 30 µM |
| CCOC(=O)C1=C(C)NC(C)=C(C(=O)OC)C1c1cccc(Cl)c1Cl (stereo not drawn) [FELODIPINE] |  |  | > 10 µM | 2.6 µM | > 30 µM | AC50 [5]: > 10 µM; AC50 [6]: > 10 µM |
| TEPRENONE |  |  |  | > 30 µM |  |  |
| N=C(N)NC(=O)Cc1c(Cl)cccc1Cl [GUANFACINE] |  |  |  | > 30 µM |  |  |
| CCN(CC)C(C)C(=O)c1ccccc1 (stereo not drawn) [DIETHYLPROPION] |  |  | > 10 µM | 0.22 µM | > 30 µM |  |
| Cc1ccc(-c2ncc(Cl)cc2-c2ccc(S(C)(=O)=O)cc2)cn1 [ETORICOXIB] |  |  | > 10 µM | > 30 µM | > 30 µM | AC50 [5]: > 10 µM; AC50 [6]: > 10 µM; AC50 [1]: > 30 µM; AC50 [9]: > 10 µM |
| O=C1CN=C(c2ccccc2Cl)c2cc([N+](=O)[O-])ccc2N1 [CLONAZEPAM] |  |  | > 10 µM | > 30 µM | > 30 µM | AC50 [5]: > 10 µM; AC50 [6]: > 10 µM |
| COC(=O)c1ccc2c(c1)NC(=O)/C2=C(\Nc1ccc(N(C)C(=O)CN2CCN(C)CC2)cc1)c1ccccc1 [NINTEDANIB] | 4.8 µM | > 30 µM |  |  |  | AC50 [10]: 13 µM |
| CC(NC(C)(C)C)C(=O)c1cccc(Cl)c1 (stereo not drawn) [BUPROPION] |  |  | > 10 µM | > 30 µM | > 30 µM | AC50 [5]: > 10 µM; AC50 [6]: > 10 µM; AC50 [10]: > 30 µM |
| Cc1nnc2n1-c1ccc(Cl)cc1C(c1ccccc1)=NC2 [ALPRAZOLAM] |  |  | > 10 µM | > 30 µM | > 30 µM | AC50 [5]: > 10 µM; AC50 [6]: > 10 µM |
| OCCN(CCO)c1nc(N2CCCCC2)c2nc(N(CCO)CCO)nc(N3CCCCC3)c2n1 [DIPYRIDAMOLE] |  |  |  | > 30 µM |  |  |
| Cc1cnc(Nc2ccc(OCCN3CCCC3)cc2)nc1Nc1cccc(S(=O)(=O)NC(C)(C)C)c1 [FEDRATINIB] |  |  |  | > 30 µM |  | AC50 [10]: 7.7 µM; AC50 [9]: 3.12 µM |
| CCN(CC)CC(=O)Nc1c(C)cccc1C [LIDOCAINE] |  |  |  | > 30 µM | > 30 µM | AC50 [6]: > 10 µM |
| CC(C)(N)Cc1ccccc1 [PHENTERMINE] |  |  | > 10 µM | > 30 µM | > 30 µM | AC50 [9]: > 10 µM |
| CCN(CC)CCCN(c1ccccc1)C1Cc2ccccc2C1 [APRINDINE] | > 30 µM | > 30 µM |  |  |  | AC50 [1]: > 30 µM |
| CC1=C(C(=O)O)N2C(=O)[C@@H](NC(=O)[C@H](N)C3=CCC=CC3)[C@H]2SC1 [CEPHRADINE] | > 30 µM | > 30 µM |  |  |  |  |
| CN1C(=O)CN=C(c2ccccc2F)c2cc([N+](=O)[O-])ccc21 [FLUNITRAZEPAM] |  |  | > 10 µM | > 10 µM | > 30 µM | AC50 [5]: > 10 µM; AC50 [6]: > 10 µM; AC50 [9]: > 10 µM |
| O=C(O[C@H]1C[N+]2(CCCOc3ccccc3)CCC1CC2)C(O)(c1cccs1)c1cccs1 [ACLIDINIUM BROMIDE] |  |  | > 10 µM | > 30 µM | > 30 µM | AC50 [5]: > 10 µM; AC50 [6]: 0.497 µM; AC50 [9]: > 10 µM |

| Compound | AC50 [2] | AC50 [3] | AC50 [4] | AC50 [7] | AC50 [8] | also measured |
| --- | --- | --- | --- | --- | --- | --- |
| COc1ccc(-n2nc(C(N)=O)c3c2C(=O)N(c2ccc(N4CCCCC4=O)cc2)CC3)cc1 [APIXABAN] | > 30 µM | > 30 µM |  |  |  | AC50 [10]: > 50 µM |
| O=C(O)c1nn(Cc2ccc(Cl)cc2Cl)c2ccccc12 [LONIDAMINE] | > 30 µM | > 30 µM |  |  |  | AC50 [1]: > 30 µM |
| CN1C2CCCC1CC(NC(=O)c1nn(C)c3ccccc13)C2 (stereo not drawn) [GRANISETRON] |  |  | > 10 µM | > 30 µM | > 30 µM | AC50 [5]: > 10 µM; AC50 [6]: > 10 µM; AC50 [10]: > 30 µM |
| Oc1cc(O)c2c(c1)O[C@H](c1ccc(O)c(O)c1)[C@@H](O)C2 [CIANIDANOL] |  |  | > 10 µM | > 30 µM | > 30 µM | AC50 [1]: > 30 µM; AC50 [9]: > 10 µM |
| CCCCCCOC(=O)NC(=N)c1ccc(NCc2nc3cc(C(=O)N(CCC(=O)OCC)c4ccccn4)ccc3n2C)cc1 [DABIGATRAN ETEXILATE] | > 30 µM | > 30 µM |  |  |  | AC50 [10]: 3 µM |
| CCC(=O)O[C@H](CC(=O)O)C[N+](C)(C)C [LEVOCARNITINE PROPIONATE] | > 30 µM | > 30 µM |  |  |  | AC50 [1]: > 30 µM |
| CCCCCCCC(=O)CC[C@@H]1[C@@H](C/C=C\CCCC(=O)O)[C@@H](O)C[C@H]1O [UNOPROSTONE] | > 30 µM | > 30 µM |  |  |  | AC50 [1]: > 30 µM; AC50 [10]: > 50 µM |
| CCCCC[C@H](O)CC[C@@H]1[C@H]2Cc3cccc(OCC(=O)O)c3C[C@H]2C[C@H]1O [TREPROSTINIL] | > 30 µM | > 30 µM |  |  |  |  |
| Nc1cc(N2CCCCC2)nc(N)[n+]1[O-] [MINOXIDIL] |  |  |  | > 30 µM |  |  |
| NS(=O)(=O)c1ccc(N2CCCCS2(=O)=O)cc1 |  |  |  |  |  | AC50 [1]: > 30 µM |
| CC1NCCOC1c1ccccc1 (stereo not drawn) [PHENMETRAZINE] |  |  | > 10 µM | > 30 µM | > 30 µM | AC50 [1]: > 30 µM; AC50 [9]: > 10 µM |
| COc1ccc2c3c1O[C@H]1C(=O)CC[C@H]4[C@@H](C2)N(C)CC[C@]314 [HYDROCODONE] |  |  | > 10 µM | > 30 µM | > 30 µM | AC50 [5]: > 10 µM; AC50 [6]: > 10 µM; AC50 [10]: > 50 µM; AC50 [9]: > 10 µM |
| CC(=O)OCC1=C(C(=O)O)N2C(=O)[C@@H](NC(=O)Cc3cccs3)[C@H]2SC1 [CEPHALOTHIN] | > 30 µM | > 30 µM |  |  |  |  |
| COc1ccc(C(Cl)=C(c2ccc(OC)cc2)c2ccc(OC)cc2)cc1 [CHLOROTRIANISENE] |  |  |  |  |  | AC50 [1]: > 30 µM |
| O=C(O)c1ccc2nc(-c3cc(Cl)cc(Cl)c3)oc2c1 |  |  |  |  |  | AC50 [10]: > 30 µM |
| CC1=C(CC(=O)O)c2cc(F)ccc2/C1=C\c1ccc([S+](C)[O-])cc1 (stereo not drawn) |  |  | > 10 µM | > 30 µM | > 30 µM |  |
| C=C(c1ccccc1OCc1cccc(Cl)c1)n1ccnc1 [CROCONAZOLE] |  |  |  |  |  | AC50 [9]: 1.11 µM |
